The values that follow come from patent publication US12128173B2, “Dry powder drug delivery system and methods” (MannKind Corporation, priority 2012, dated 2024).

Data set [1] in a line: FDKP pharmacokinetics after inhalation, DPI 1 vs MEDTONE (Example 8). In kind it is in vivo, healthy volunteers. An excerpt: The MEDTONE® inhaler system was used for comparison. […] Powder used were crystalline powder formulations.
During an inhalation maneuver, the patient was instructed to maintain a nominal pressure differential of 4-6 kPa combined with a short inhalation of 3-4 seconds or a long inhalation of 6-7 seconds. To generate a “hard” inhalation, the subject provided a nominal inhalation time of about 6.5 seconds and a peak pressure of 7 kPa. Conversely, to generate an “easy” inhalation, the subject provided a nominal inhalation time of about 6.5 seconds and a peak pressure of 5 kPa. Coupled with the inhalation monitoring apparatus, gravimetric assessment of the powder mass discharged from the cartridge was performed. This enabled a linkage between inhalation maneuver during dosing, cartridge discharge mass and pharmacokinetic profile determinations for each subject.
The study was an open-label, crossover, 2-part study in healthy volunteers.
Part 2 was carried out as a 2-part, 2-way crossover study for evaluating the effect of flow rate (15 versus 30 LPM) and inhalation time (3 versus 6 seconds). For each parameter tested (i.e., flow rate, and inhalation time), ten subjects were crossed over for each parameter with 20 subjects total for all of the parameters. Pharmacokinetics of FDPK was assessed with each treatment from blood samples taken from the subjects.

The nature of data set [2]: In vitro powder emptying and VMGD, DPI 2 vs MTDS (Example 7). The class given is physicochemical. The settings on record: 4 kPa.
Text: In vitro powder performance for these systems was compared for various parameter of inhaler performance. For DPI 2 a single discharge per cartridge was used as compared to two discharges per cartridge in the MEDTONE® system.
Particle sizing by laser diffraction and quantification of emitted mass as described above were used in these experiments. A laser diffraction instrument (Sympatec HELOS) was adapted with a novel pressurized inhaler chamber to facilitate analysis of powder plumes. MTDS cartridges were discharged twice per determination versus once with DPI 2.
Data set [3] can be described thus: VMGD and container emptying by laser diffraction, DPI 2 vs MEDTONE (Example 6). In kind it is physicochemical. Conditions: SSA 55, 4 kPa.
Text: Typically, the geometric size of the emitted powder includes a volumetric distribution characterized by the median particle size, VMGD.
Data set [4] in a line: FDKP bioavailability versus intravenous bolus of radiolabeled FDKP. Conditions: model analysis.
Data set [5] is described as follows: O-series vs U-series inhaler: discharge and particle size of crystalline and amorphous powders (Example 14). In kind it is physicochemical. Conditions: fill 25 mg, 4 kPa; for X84 avg: in µm (unit assumed). The procedure:
These experiments were conducted to test various inhaler designs in trying to improve percent dose discharge or increase device emptying to acceptable ranges for certain types of powders used. […] In these experiments, therefore, two types of dry powder inhalers were designed and built. An O-series (FIGS. 49 and 50) dry powder inhaler wherein the inhaler comprises rigid conduits which generate a tumbling, recirculating action of an airflow through the powder container during an inhalation in an O-shape prior to the airflow exiting the container. A second inhaler or U-series was also designed and built for comparison wherein the dry powder inhaler comprised a rigid air conduit through the container substantially U-shaped and configured with a deflector so that in use an airflow entering the container redirects the airflow within the container void or space in a U-shape/semilunar path or downwardly prior to exiting the container. Powders tested were either crystalline or amorphous.
The rigid flow conduits as illustrated in FIGS. 49 and 51 can be adapted to any type of dry powder inhaler for delivering different types of powder compositions. In these experiments, crystalline and amorphous powders were tested with the two types of air flow conduits designed into the same type of inhalers, a single use disposable. […] Inhaler performance was tested and evaluated from measurements using various parameters, such as pressure differential, powder content prior to and after testing of various powders via a simulated single inhalation. The particle size distribution of the discharged powder plume for each inhaler used was also measured as described in Example 7 above.

The nature of data set [6]: Solubility of FDKP by pH. The class given is physicochemical.
Data set [7] in a line: Powder flowability: Hausner ratio, compressibility (Carr's) index, angle of repose, critical orifice. In kind it is physicochemical. An excerpt:
FDKP microparticles either unmodified or containing a drug, for example insulin, constitute highly cohesive powders.

Data set [8] can be described thus: Post prandial glucose excursions during meal challenges. The class given is in vivo, healthy volunteers. Conditions: DPI 2 vs MEDTONE, doses not titrated.

As to `O=C(O)/C=C/C(=O)NCCCCC1NC(=O)C(CCCCNC(=O)/C=C/C(=O)O)NC1=O` (stereo not drawn) [FDKP, 3,6-bis(N-fumaryl-4-aminobutyl)-2,5-diketopiperazine], in data set [1] (DPI 1 vs MEDTONE), the “better delivery of FDKP into the systemic circulation than MEDTONE” value is recorded as “about 30%”. Further, the “AVG mean AUC fdkp per emitted fdkp mass” value in data set [1] (Part 1, DPI 1, 10 mg, nominal time and inhalation effort) worked out at 3495 ng*min/mL*mg fdkp; in data set [1] (Part 1, MT (MEDTONE), 10 mg, nominal time and inhalation effort) it was 1934 ng*min/mL*mg fdkp; in data set [1] (Part 2, DPI 1, 10 mg, long inhalation time) it was 3289 ng*min/mL*mg fdkp; in data set [1] (Part 2, DPI 1, 10 mg, short inhalation time), 3310 ng*min/mL*mg fdkp. Besides, the “Ave. VMGD” value in data set [2] (DPI 2, fill 10 mg, single discharge) amounted to 6.84 μm; in data set [2] (MEDTONE (MTDS), fill 10 mg FDKP, two discharges) it was 21.21 μm. Besides, the VMGD in data set [3] (DPI 2, 56% trans) is listed as 6.800 micron; in data set [3] (MEDTONE, 56% trans) it was 21.200 micron. Moreover, the “% of the FDKP delivered into the systemic circulation” value in data set [4] (DPI 2, single inhalation, 6.7 mg total fill FDKP-insulin (FDKP about 6 mg)) is reported as 64%; in data set [4] (MEDTONE, two inhalations, FDKP-insulin formulation) it was 46%. For the same compound, the X16 avg in data set [5] (Sample 1, O-series) turned out to be 1.9 µm; in data set [5] (Sample 2, U-series) it was 2.76 µm. Further, the X50 avg worked out at 6.86 μm in data set [5] (Sample 1, O-series) and 11.19 μm in data set [5] (Sample 2, U-series). For the same compound, the X84 avg came out at 21.55 in data set [5] (Sample 1, O-series) and 36.51 in data set [5] (Sample 2, U-series). Also, the figures for the solubility entry in data set [6] (at neutral or basic pH) and in data set [6] (in acid) were “readily soluble” and “low solubility”, respectively. In addition, the angle of repose in data set [7] amounted to 40 °.
With insulin, the “post prandial glucose excursions” value in data set [8] is listed as “generally comparable glucose excursions”.
